# Laboratory results: patent US8829007B2 (priority 2009, dated 2014)
# Like-named read-outs stand apart in the source and are kept apart here.
# Legend:
# [1] = tested on: A/PR/8/34 influenza virus; assay: microbe, parasite or virus in culture; format: cell-based
# [2] = tested on: influenza A virus (A/PR/8/34); assay: microbe, parasite or virus in culture; format: cell-based
# [3] = Influenza A virus, PR/8, MDCK, bDNA assay, A/PR/8/34 influenza virus replication in MDCK cells, class symbols, read-out: EC50 (mean all)
# [4] = Influenza A virus, PR/8, MDCK, CPE assay, A/PR/8/34 infected MDCK cells, class symbols, read-out: IC50 (mean all)
# [5] = Influenza A virus, PR/8, MDCK, mean all, A/PR/8/34 influenza virus in MDCK cells, bDNA assay, read-out: EC50
# [6] = Influenza A virus, PR/8, MDCK, mean all, A/PR/8/34 infected MDCK cells, CPE assay, read-out: IC50
# [7] = bDNA assay, A/PR/8/34 influenza virus replication in MDCK cells, class symbols, read-out: EC50 (mean all)
# [8] = CPE assay, A/PR/8/34 infected MDCK cells, class symbols, read-out: IC50 (mean all)
# [9] = Influenza A virus, PR/8, MDCK, MDCK cells infected with A/PR/8/34, replication of influenza virus (viral RNA, bDNA), class symbols, read-out: EC50 (mean all)
# [10] = Influenza A virus, PR/8, MDCK, MDCK cells infected with A/PR/8/34, survival of infected cells, class symbols, read-out: IC50 (mean all)
# [11] = Influenza A virus, PR/8, mean all, replication of A/PR/8/34 influenza virus (bDNA assay), read-out: EC50
# [12] = Influenza A virus, PR/8, MDCK, mean all, survival of A/PR/8/34 infected MDCK cells (CPE assay), read-out: IC50
compound,measurement,setting,value
"COCC(O)CN[C@@H]1CCC[C@H](Nc2nc(-c3c[nH]c4ncc(Cl)cc34)ncc2F)C1 (stereo partly drawn) [Compound 610, 1-[[(1R,3S)-3-[[2-(5-chloro-1H-pyrrolo[2,3-b]pyridin-3-yl)-5-fluoro-pyrimidin-4-yl]amino]cyclohexyl]amino]-3-methoxy-propan-2-ol]",EC50,[1]; [3],> 3.3 µM
same,IC50,[2]; [4],< 5 µM
O=C(N[C@@H]1CCC[C@H](Nc2nc(-c3c[nH]c4ncc(Cl)cc34)ncc2F)C1)O[C@H]1CCOC1 [Compound 649],EC50,[1]; [3],< 5 µM
same,IC50,[2]; [4],< 5 µM
"CNC(=O)N[C@H]1CCC[C@H](Nc2nc(-c3c[nH]c4ncc(Cl)cc34)ncc2F)C1 (relative stereo) [Compound 458, 1-[trans-3-[[2-(5-chloro-1H-pyrrolo[2,3-b]pyridin-3-yl)-5-fluoro-pyrimidin-4-yl]amino]cyclohexyl]-3-methyl-urea]",EC50,[1]; [5],< 5 µM
same,IC50,[2]; [6],< 5 µM
N#Cc1cnc2[nH]cc(-c3ncc(F)c(NC4CCCN(CC(N)=O)C4)n3)c2c1 (stereo not drawn) [Compound 661],EC50,[1]; [7],< 5 µM
same,IC50,[2]; [8],< 5 µM
"COc1ccccc1OC(=O)N1CCC[C@H](CNc2nc(-c3c[nH]c4ncc(Cl)cc34)ncc2F)C1 [Compound 69, (R)-2-methoxyphenyl 3-((2-(5-chloro-1H-pyrrolo[2,3-b]pyridin-3-yl)-5-fluoropyrimidin-4-ylamino)methyl)piperidine-1-carboxylate]",EC50,"[1]; Influenza A virus, PR/8, MDCK, read-out: EC50 (mean all)",< 5 µM
same,IC50,"[2]; Influenza A virus, PR/8, MDCK, read-out: IC50 (mean all)",< 5 µM
Cc1ccc(S(=O)(=O)n2cc(-c3ncc(F)c(N[C@H]4CCCC(C)(O)C4)n3)c3cc(Cl)cnc32)cc1 (stereo partly drawn) [Compound 655],EC50,[1]; [7],< 5 µM
same,IC50,[2]; [8],< 5 µM
O=c1[nH]c(=O)n([C@H]2CCC[C@H](Nc3nc(-c4c[nH]c5ncc(Cl)cc45)ncc3F)C2)o1 [Compound 798],EC50,"[1]; mean all, A/PR/8/34 influenza virus replication, bDNA, read-out: EC50",< 5 µM
same,IC50,[2]; read-out: IC50,< 5 µM
"CC(C)(C)C(=O)N1CCOCC1CNc1nc(-c2c[nH]c3ncc(Cl)cc23)ncc1F (stereo not drawn) [Compound 530, 1-(3-((2-(5-chloro-1H-pyrrolo[2,3-b]pyridin-3-yl)-5-fluoropyrimidin-4-ylamino)methyl)morpholino)-2,2-dimethylpropan-1-one]",EC50,[1]; [9],5 to 10 µM
same,IC50,[2]; [10],> 20 µM
"CCCS(=O)(=O)N1CCC[C@H](Nc2nc(-c3c[nH]c4ncc(Cl)cc34)ncc2F)C1 [Compound 306, (S)-2-(5-chloro-1H-pyrrolo[2,3-b]pyridin-3-yl)-5-fluoro-N-(1-(propylsulfonyl)-piperidin-3-yl)pyrimidin-4-amine]",EC50,[1]; [5],< 5 µM
same,IC50,[2]; [6],< 5 µM
"CC1(O)CCCCC1Nc1nc(-c2c[nH]c3ncc(Cl)cc23)ncc1F (stereo not drawn) [Compound 562, 2-(2-(5-chloro-1H-pyrrolo[2,3-b]pyridin-3-yl)-5-fluoropyrimidin-4-ylamino)-1-methylcyclohexanol]",EC50,[1]; [9],< 5 µM
same,IC50,[2]; [10],> 10 µM
"O=C(c1cc(F)cc2c1OCOC2)N1CCC[C@H](CNc2nc(-c3c[nH]c4ncc(Cl)cc34)ncc2F)C1 [Compound 142, (R)-(3-((2-(5-chloro-1H-pyrrolo[2,3-b]pyridin-3-yl)-5-fluoropyrimidin-4-ylamino)methyl)piperidin-1-yl)(6-fluoro-4H-benzo[d][1,3]dioxin-8-yl)methanone]",EC50,"[1]; Influenza A virus, PR/8, MDCK, MDCK cells infected with A/PR/8/34, bDNA viral RNA, read-out: EC50 (mean all)",< 5 µM
same,IC50,"[2]; Influenza A virus, PR/8, MDCK, MDCK cells infected with A/PR/8/34, cell protection (CPE), read-out: IC50 (mean all)",< 5 µM
"O=C1CC2(CCC[C@H](Nc3nc(-c4c[nH]c5ncc(Cl)cc45)ncc3F)C2)CN1 (stereo partly drawn) [Compound 969, (7S)-7-(2-(5-chloro-1H-pyrrolo[2,3-b]pyridin-3-yl)-5-fluoropyrimidin-4-ylamino)-2-azaspiro[4.5]decan-3-one]",EC50,[1]; [11],< 5 µM
same,IC50,[2]; [12],< 5 µM
O=C(O)[C@H]1[C@@H]2CC[C@@H](C2)[C@@H]1Nc1nc(-c2c[nH]c3ncc(Cl)cc23)ncc1F (racemic) [Compound 946],EC50,[1]; [11],< 5 µM
same,IC50,[2]; [12],< 5 µM
CC(C)OC(=O)NC1CCCC(Nc2nc(-c3c[nH]c4ncc(Cl)cc34)ncc2F)C1 (stereo not drawn) [Compound 697],EC50,"[1]; mean all, bDNA viral RNA in MDCK cells infected with A/PR/8/34, read-out: EC50",< 5 µM
same,IC50,"[2]; mean all, MDCK cells infected with A/PR/8/34, cell protection (CPE), read-out: IC50",< 5 µM
O=C(O)[C@@H]1CC[C@H](Nc2nc(-c3c[nH]c4ncc(Cl)cc34)ncc2F)C1 [Compound 566],EC50,[1]; [9],< 5 µM
same,IC50,[2]; [10],< 5 µM
